Test results taken from PMC3883354 (Bioorganic & medicinal chemistry, 2013).
Like-named read-outs stand apart in the source and are kept apart here.

Columns and labels:
human GIVA cPLA2 [1] = biological target: T1, human GIVA cPLA2 (Homo sapiens, UniProt P47712); test: mixed micelle-based modified Dole assay, GIVA cPLA2 inhibition; format: biochemical; settings: 0.091 mole fraction inhibitor in mixed micelles; n = 3; listed as GK187
T1 sequence (P47712 1-749): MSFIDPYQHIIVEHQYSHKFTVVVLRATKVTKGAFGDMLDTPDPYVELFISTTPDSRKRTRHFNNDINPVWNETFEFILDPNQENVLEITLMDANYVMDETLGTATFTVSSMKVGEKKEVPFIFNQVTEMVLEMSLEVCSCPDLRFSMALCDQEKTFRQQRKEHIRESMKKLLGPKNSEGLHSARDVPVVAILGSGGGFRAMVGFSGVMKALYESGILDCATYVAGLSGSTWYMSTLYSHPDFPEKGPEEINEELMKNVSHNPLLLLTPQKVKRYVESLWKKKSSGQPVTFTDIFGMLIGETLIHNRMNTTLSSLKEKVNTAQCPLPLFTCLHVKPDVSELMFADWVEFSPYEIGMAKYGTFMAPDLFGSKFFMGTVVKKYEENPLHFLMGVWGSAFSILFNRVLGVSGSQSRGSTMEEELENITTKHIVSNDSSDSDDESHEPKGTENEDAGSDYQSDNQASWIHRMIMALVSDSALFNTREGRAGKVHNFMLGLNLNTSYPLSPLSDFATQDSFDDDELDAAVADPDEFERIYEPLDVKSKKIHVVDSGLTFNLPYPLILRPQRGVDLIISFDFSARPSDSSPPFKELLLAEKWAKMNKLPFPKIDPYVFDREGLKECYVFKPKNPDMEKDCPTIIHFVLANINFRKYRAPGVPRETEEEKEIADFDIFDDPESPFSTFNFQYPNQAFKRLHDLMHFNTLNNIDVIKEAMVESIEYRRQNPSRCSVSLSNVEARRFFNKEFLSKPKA

human GV sPLA2 [2] = biological target: T2, human GV sPLA2 (Homo sapiens, UniProt P39877); test: mixed micelle-based modified Dole assay, GV sPLA2 inhibition; format: biochemical; settings: 0.091 mole fraction inhibitor in mixed micelles; n = 3
T2 sequence (P39877 21-138): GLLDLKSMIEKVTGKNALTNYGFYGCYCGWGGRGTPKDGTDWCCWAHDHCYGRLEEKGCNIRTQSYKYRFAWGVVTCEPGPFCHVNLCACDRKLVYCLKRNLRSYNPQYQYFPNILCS

human GVIA iPLA2 = biological target: T3, human GVIA iPLA2 (Homo sapiens, UniProt O60733); settings: cited from earlier work
T3 sequence (O60733 1-806): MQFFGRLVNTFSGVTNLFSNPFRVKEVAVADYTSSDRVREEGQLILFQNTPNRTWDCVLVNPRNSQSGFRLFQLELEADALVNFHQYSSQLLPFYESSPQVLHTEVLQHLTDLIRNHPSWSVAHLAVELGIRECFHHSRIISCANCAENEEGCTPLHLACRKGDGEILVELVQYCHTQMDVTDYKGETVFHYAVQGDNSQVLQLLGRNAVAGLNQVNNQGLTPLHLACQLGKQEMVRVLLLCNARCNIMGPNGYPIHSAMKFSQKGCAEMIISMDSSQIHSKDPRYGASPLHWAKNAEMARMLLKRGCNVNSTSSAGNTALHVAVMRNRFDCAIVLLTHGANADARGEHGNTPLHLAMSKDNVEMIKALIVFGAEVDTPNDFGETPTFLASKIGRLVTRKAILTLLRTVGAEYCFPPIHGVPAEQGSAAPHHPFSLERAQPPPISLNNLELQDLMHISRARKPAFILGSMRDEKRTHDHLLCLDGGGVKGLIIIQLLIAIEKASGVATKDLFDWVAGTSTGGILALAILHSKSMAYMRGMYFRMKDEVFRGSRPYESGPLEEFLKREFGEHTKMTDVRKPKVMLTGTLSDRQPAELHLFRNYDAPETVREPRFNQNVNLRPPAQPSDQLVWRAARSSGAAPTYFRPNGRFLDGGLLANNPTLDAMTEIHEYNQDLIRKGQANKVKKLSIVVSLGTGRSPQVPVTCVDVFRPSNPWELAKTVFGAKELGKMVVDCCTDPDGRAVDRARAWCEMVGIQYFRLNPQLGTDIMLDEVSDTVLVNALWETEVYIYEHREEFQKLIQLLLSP

human GV sPLA2 [3] = biological target: T2, human GV sPLA2; settings: 0.091 mole fraction inhibitor; cited from earlier work
human GIVA cPLA2 [4] = biological target: T1, human GIVA cPLA2; settings: 0.091 mole fraction inhibitor; cited from earlier work

Structure (SMILES)	GIVA cPLA2 % Inhibition at 0.091 (human GIVA cPLA2 [1])	GV sPLA2 % Inhibition at 0.091 (human GV sPLA2 [2])	GVIA iPLA2 % Inhibition at 0.091 (human GVIA iPLA2; 0.091 mole fraction inhibitor) [%]	GVIA iPLA2 XI(50) (human GVIA iPLA2; mole fraction of inhibitor for 50% inhibition) [mole fraction]	GV sPLA2 % Inhibition at 0.091 (human GV sPLA2 [3]) [%]	GIVA cPLA2 % Inhibition at 0.091 (human GIVA cPLA2 [4])
COc1ccc(CCCCC(=O)C(F)(F)C(F)(F)F)cc1 [6d, 1,1,1,2,2-Pentafluoro-7-(4-methoxyphenyl)heptan-3-one]	no significant inhibition	no significant inhibition				
O=C(CCCCc1ccccc1)C(F)(F)C(F)(F)F [FKGK11]			99.4	0.0014 ± 0.0001	28.0	N.D. (N.D. signifies compounds with less than 25% inhibition (or no detectable inhibition))
